Article PMC11882969 (Nature Communications, 2025)
Where “and” joins values, the source holds several entries; their conditions need not be identical. Equal entries are not always repeated. Where two headings read alike, the source gives them in different places.

Tests used:
hCB1 = hCB1 (Homo sapiens, UniProt P21554); test: bioSensAll ebBRET signaling profiling, hCB1; assay type: cell-based; set-up: host or cells: HEK293SL cells, transient PEI transfection; settings: for RE, relative efficacy: vs CP-55,940; for EC50: read-out: EC50 [95% CI]; for Emax: normalized to CP-55,940
CB1 (rCB1) = CB1 (rCB1) (Rattus norvegicus, UniProt P20272); test: Radioligand competition binding, [3H]-CP-55,940, rat brain membranes
CB1 (rCB1), sequence (P20272 whole entry): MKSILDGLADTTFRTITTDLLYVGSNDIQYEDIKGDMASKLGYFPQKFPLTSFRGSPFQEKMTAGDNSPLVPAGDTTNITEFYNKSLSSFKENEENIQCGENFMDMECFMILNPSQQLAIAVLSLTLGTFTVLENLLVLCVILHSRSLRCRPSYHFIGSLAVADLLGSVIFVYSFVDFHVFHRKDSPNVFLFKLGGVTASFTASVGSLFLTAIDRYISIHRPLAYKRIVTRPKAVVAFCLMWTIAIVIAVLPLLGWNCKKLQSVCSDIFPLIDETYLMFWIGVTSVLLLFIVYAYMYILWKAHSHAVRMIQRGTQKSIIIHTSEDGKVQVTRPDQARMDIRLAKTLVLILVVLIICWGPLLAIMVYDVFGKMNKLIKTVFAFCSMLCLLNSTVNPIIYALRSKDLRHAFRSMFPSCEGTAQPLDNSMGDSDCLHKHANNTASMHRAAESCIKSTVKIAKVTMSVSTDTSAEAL

hCB1, sequence (P21554 whole entry): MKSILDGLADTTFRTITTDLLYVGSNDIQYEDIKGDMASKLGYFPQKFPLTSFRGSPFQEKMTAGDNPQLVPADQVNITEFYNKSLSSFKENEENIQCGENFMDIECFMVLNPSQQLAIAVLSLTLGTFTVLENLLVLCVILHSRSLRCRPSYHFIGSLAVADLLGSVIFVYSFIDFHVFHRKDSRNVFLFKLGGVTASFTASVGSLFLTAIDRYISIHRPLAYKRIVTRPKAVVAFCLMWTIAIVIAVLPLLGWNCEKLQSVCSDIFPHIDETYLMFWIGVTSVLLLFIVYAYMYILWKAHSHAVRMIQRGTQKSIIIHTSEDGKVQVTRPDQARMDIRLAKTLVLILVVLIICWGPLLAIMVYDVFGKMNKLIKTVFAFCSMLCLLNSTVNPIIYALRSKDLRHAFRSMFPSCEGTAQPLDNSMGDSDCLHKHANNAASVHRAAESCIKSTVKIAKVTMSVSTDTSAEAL

COC(=O)C(C)(NC(=O)c1cc(C)n(-c2cccc(C(F)(F)F)c2)n1)c1cccs1 (stereo not drawn) [‘4042]
GoB hCB1 (hCB1; Log [Compound] (M) -8): 98.6892 and 112.511 and 89.2869
Gq hCB1 (hCB1; Log [Compound] (M) -8): 1060
Gs hCB1 (hCB1; Log [Compound] (M) -8): 6741
Gz hCB1 (hCB1; Log [Compound] (M) -8): 97.3733 and 99.8321 and 82.6809
Barr2+GRK2 hCB1 (hCB1; Log [Compound] (M) -8.22186): 47.6346 and 43.8472
G13 hCB1 (hCB1; Log [Compound] (M) -8.22186): 44.4318 and 47.6121
G15 hCB1 (hCB1; Log [Compound] (M) -8.22186): 112.142 and 106.076
Gi1 hCB1 (hCB1; Log [Compound] (M) -8.22186): 104.327 and 106.186 and 100.167
Gi2 hCB1 (hCB1; Log [Compound] (M) -8.22186): 112.022 and 97.4049
GoB hCB1 (hCB1; Log [Compound] (M) -8.22186): 115.24 and 97.3514 and 98.8499
Gq hCB1 (hCB1; Log [Compound] (M) -8.22186): 1073
Gs hCB1 (hCB1; Log [Compound] (M) -8.22186): 6493
Gz hCB1 (hCB1; Log [Compound] (M) -8.22186): 122.54 and 109.635 and 78.9413
Barr2+GRK2 hCB1 (hCB1; Log [Compound] (M) -8.39794): 32.0865 and 32.6356
G15 hCB1 (hCB1; Log [Compound] (M) -8.39794): 101.826 and 96.5808
Gi1 hCB1 (hCB1; Log [Compound] (M) -8.39794): 93.4953 and 99.8959 and 97.0977
Gi2 hCB1 (hCB1; Log [Compound] (M) -8.39794): 102.295 and 80.9389
GoB hCB1 (hCB1; Log [Compound] (M) -8.39794): 81.1381 and 111.288 and 86.2389
Gq hCB1 (hCB1; Log [Compound] (M) -8.39794): 1055
Gs hCB1 (hCB1; Log [Compound] (M) -8.39794): 6872
Gz hCB1 (hCB1; Log [Compound] (M) -8.39794): 84.7686 and 103.436 and 80.0517
G13 hCB1 (hCB1; Log [Compound] (M) -8.68787): 39.593 and 30.3572
G15 hCB1 (hCB1; Log [Compound] (M) -8.68787): 97.8136 and 87.6381
Gi1 hCB1 (hCB1; Log [Compound] (M) -8.68787): 91.7785 and 78.2511 and 91.448
Gi2 hCB1 (hCB1; Log [Compound] (M) -8.68787): 95.663 and 73.4469
GoB hCB1 (hCB1; Log [Compound] (M) -8.68787): 96.3854 and 73.3436 and 84.1561
Gq hCB1 (hCB1; Log [Compound] (M) -8.68787): 1066
Gs hCB1 (hCB1; Log [Compound] (M) -8.68787): 6260
Gz hCB1 (hCB1; Log [Compound] (M) -8.68787): 96.1128 and 114.514 and 58.5255
G13 hCB1 (hCB1; Log [Compound] (M) -9.15521): 17.7531 and 19.6344
G15 hCB1 (hCB1; Log [Compound] (M) -9.15521): 67.1744 and 66.4649
Gi1 hCB1 (hCB1; Log [Compound] (M) -9.15521): 78.7311 and 50.1158 and 63.8224
Gi2 hCB1 (hCB1; Log [Compound] (M) -9.15521): 65.4704 and 47.7485
GoB hCB1 (hCB1; Log [Compound] (M) -9.15521): 59.8283 and 42.5561 and 56.6226
Gq hCB1 (hCB1; Log [Compound] (M) -9.15521): 1117
Gs hCB1 (hCB1; Log [Compound] (M) -9.15521): 6551
G15 hCB1 (hCB1; Log [Compound] (M) -9.61989): 31.8785 and 42.2144
Gi2 hCB1 (hCB1; Log [Compound] (M) -9.61989): 32.2472 and 21.8596
GoB hCB1 (hCB1; Log [Compound] (M) -9.61989): 29.5611 and 20.1669 and 24.5425
Gq hCB1 (hCB1; Log [Compound] (M) -9.61989): 1001
Gs hCB1 (hCB1; Log [Compound] (M) -9.61989): 6299
G15 hCB1 (hCB1; Log [Compound] (M) -10.0969): 15.3529 and 24.9603
GoB hCB1 (hCB1; Log [Compound] (M) -10.0969): 15.2383 and 7.632 and 9.061
Gq hCB1 (hCB1; Log [Compound] (M) -10.0969): 1213
Gs hCB1 (hCB1; Log [Compound] (M) -10.0969): 6447
Gq hCB1 (hCB1; Log [Compound] (M) -10.5529): 1076
Gs hCB1 (hCB1; Log [Compound] (M) -10.5529): 6140
Gq hCB1 (hCB1; Log [Compound] (M) -11.0177): 1045
Gs hCB1 (hCB1; Log [Compound] (M) -11.0177): 6569
Gq hCB1 (hCB1; Log [Compound] (M) -11.4949): 1094
Gs hCB1 (hCB1; Log [Compound] (M) -11.4949): 6245
Gq hCB1 (hCB1; Log [Compound] (M) -11.9208): 1111
Gs hCB1 (hCB1; Log [Compound] (M) -11.9208): 6591
Gq hCB1 (hCB1; Log [Compound] (M) -12.3979): 1117
Gs hCB1 (hCB1; Log [Compound] (M) -12.3979): 6511
Gq hCB1 (hCB1; Log [Compound] (M) -12.8861): 1023
Gs hCB1 (hCB1; Log [Compound] (M) -12.8861): 6621
pEC50 [95% CI] (hCB1; hCB1 G13): 8.69 [8.0 – 9.3]
RE, relative efficacy (hCB1; hCB1 G13): 0.91
RE, relative efficacy (hCB1; hCB1 G15): 0.74
pEC50 [95% CI] (hCB1; hCB1 Gi1): 9.32 [9.2 – 9.4]
RE, relative efficacy (hCB1; hCB1 Gi1): 0.97
pEC50 [95% CI] (hCB1; hCB1 Gi2): 9.25 [9.0 – 9.5]
RE, relative efficacy (hCB1; hCB1 Gi2): 1.01
pEC50 [95% CI] (hCB1; hCB1 GoB): 9.20 [9.1 – 9.3]
RE, relative efficacy (hCB1; hCB1 GoB): 1.04
RE, relative efficacy (hCB1; hCB1 Gz): 0.62
RE, relative efficacy (hCB1; hCB1 ßarr2+GRK2): 0.81
EC50 (hCB1; hCB1 Barr2 + GRK2): 3.6 nM
EC50 (hCB1; hCB1 G13): 2.1 nM
EC50 (hCB1; hCB1 G15): 0.37 nM
EC50 (hCB1; hCB1 GoB): 0.64 nM
EC50 (hCB1; hCB1 Gz): 0.43 nM
Emax (hCB1; read-out: Emax [95% CI], hCB1 Barr2 + GRK2): 72%
Emax (hCB1; read-out: Emax [95% CI], hCB1 G13): 64%
Emax (hCB1; read-out: Emax [95% CI], hCB1 G15): 105%
Emax (hCB1; read-out: Emax [95% CI], hCB1 Gi2): 101%
Emax (hCB1; read-out: Emax [95% CI], hCB1 GoB): 103%
Emax (hCB1; read-out: Emax [95% CI], hCB1 Gz): 97%
pKi [95% CI] (CB1 (rCB1); rCB1): 8.7 [8.6 – 8.9]
Ki (CB1 (rCB1); read-out: Ki [95% CI], rCB1, [3H]-CP-55,940): 1.9 nM and 1.86 nM
